Experimental data as given in paper PMC12749748, “Chemically-induced degradation of the endoplasmic-reticulum stress sensor IRE1 by a VHL-recruiting chimera” (Nature Communications, 2025).

Assays:
IRE1 = target: T1, IRE1 (Homo sapiens, UniProt O75460+P40337); experiment: NanoLuc signal IRE1 depletion, WT IRE1-NanoLuc, HEK293T cells; type: cell-based
T1 construct: N2731 (HaloTag-VHL); host or cells: HEK293T
Method: 8 × 10^5 293T cells per well were seeded in 6-well plates (Costar, #3516) and incubated at 37 °C, 5% CO2 for 6 h. A mixture of 0.2 µg ERN1 (IRE1)-NanoLuc Fusion Vector (Promega, NV1321), 2 µg HaloTag-VHL Fusion Vector (Promega, N2731), 6 µl FuGENE HD Transfection Reagent (Promega, E2311), and 100 µL Opti-MEM I reduced serum medium (Gibco, #31985062) per well was incubated at room temperature for 20 min before adding to cells. For expression of IRE1 mutants, site-directed mutagenesis was performed using the ERN1-NanoLuc Fusion Vector as the DNA template, and the transfection mixture was prepared in the same way as WT IRE1. After 18 h, cells from 6-well plates were trypsinized, resuspended in Opti-MEM I reduced serum medium, and reseeded into 96-well plates (Costar, #3917), with or without the addition of HaloTag NanoBRET 618 Ligand (Promega, G9801). After 18 h of incubation, a titration of G6374 (dilutions made in Opti-MEM I reduced serum medium) was added to the cells. After 2 h of G6374 treatment, NanoBRET Nano-Glo Substrate (Promega, N1571) was added to cells. The 96-well plates were imaged by GloMax Discover Microplate Reader (Promega, GM3000) with the default “BRET: NanoBRET 618” protocol (Donor: 450 BP; Acceptor: 600 LP; Integration: 0.3 s). Data analysis was performed according to the user manual.

human IRE1.KR = target: T2, human IRE1.KR (Homo sapiens, UniProt O75460); experiment: Surface plasmon resonance, binary interaction with IRE1.KR; type: binding; conditions: SPR, immobilised IRE1.KR, 20 °C, 1 to 1 kinetic model
T2 construct: Recombinant human IRE1.KR (G547-L977) was purified using an established protocol; His6 (with TEV protease cleavage site) (N, cleaved yes); made in house; host or cells: Sf9
T2 sequence (O75460 547-977): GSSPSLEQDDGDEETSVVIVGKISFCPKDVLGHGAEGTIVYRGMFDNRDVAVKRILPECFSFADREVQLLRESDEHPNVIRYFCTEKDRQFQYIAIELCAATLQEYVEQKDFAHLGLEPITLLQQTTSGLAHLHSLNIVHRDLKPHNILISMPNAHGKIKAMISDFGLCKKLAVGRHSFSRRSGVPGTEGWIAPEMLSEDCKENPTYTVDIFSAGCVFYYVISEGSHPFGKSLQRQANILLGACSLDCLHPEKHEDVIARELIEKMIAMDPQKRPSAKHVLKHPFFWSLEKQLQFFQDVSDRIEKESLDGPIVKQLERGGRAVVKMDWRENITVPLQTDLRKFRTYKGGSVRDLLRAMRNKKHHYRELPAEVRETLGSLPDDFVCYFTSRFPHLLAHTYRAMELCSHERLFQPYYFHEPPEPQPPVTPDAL
Method: All SPR experiments in this paper were recorded on a Biacore S200 instrument; all protein captures and data collection were at 20 °C.
For binary interactions with G6374: a Xantec SAHC 200 M (streptavidin) chip was inserted into the instrument and primed into running buffer [50 mM HEPES (pH 7.4), 150 mM NaCl, 0.001% Tween 20, 0.2% PEG3350, 0.25 mM TCEP, and 2% DMSO]. Biotinylated human IRE1.KR protein was captured on FC2 to 2-4000 RU, biotinylated VHL in complex with Elongin B (VHL/EloB) was captured on FC4 to 1-2000 RU, data were collected, and all referenced to FC1. Affinity for G6374 was measured using a titration series, injected from low to high with an 8-point, 2-fold dilution dose response with a top concentration of 0.5 μM in both single cycle (single cycle kinetics (SCK)) and multi cycle kinetics (MCK) formats. For MCK experiments, an association time of 45 s and a dissociation time of 200 s with a flow rate of 50 μL/min. For SCK experiments, an association time of 45 s and a dissociation time of 2000 s with a flow rate of 50 μL/min were used. All data were analyzed using Insight software (Cytiva) using a 1 to 1 kinetic binding model.

PKD1 = target: T3, PKD1 (Homo sapiens, UniProt Q15139); experiment: Immunoblot of PKD1 degradation in KMS27 cells; type: cell-based; conditions: N=3
T3 construct: endogenous in cells; host or cells: KMS27
T3 sequence (Q15139 whole entry): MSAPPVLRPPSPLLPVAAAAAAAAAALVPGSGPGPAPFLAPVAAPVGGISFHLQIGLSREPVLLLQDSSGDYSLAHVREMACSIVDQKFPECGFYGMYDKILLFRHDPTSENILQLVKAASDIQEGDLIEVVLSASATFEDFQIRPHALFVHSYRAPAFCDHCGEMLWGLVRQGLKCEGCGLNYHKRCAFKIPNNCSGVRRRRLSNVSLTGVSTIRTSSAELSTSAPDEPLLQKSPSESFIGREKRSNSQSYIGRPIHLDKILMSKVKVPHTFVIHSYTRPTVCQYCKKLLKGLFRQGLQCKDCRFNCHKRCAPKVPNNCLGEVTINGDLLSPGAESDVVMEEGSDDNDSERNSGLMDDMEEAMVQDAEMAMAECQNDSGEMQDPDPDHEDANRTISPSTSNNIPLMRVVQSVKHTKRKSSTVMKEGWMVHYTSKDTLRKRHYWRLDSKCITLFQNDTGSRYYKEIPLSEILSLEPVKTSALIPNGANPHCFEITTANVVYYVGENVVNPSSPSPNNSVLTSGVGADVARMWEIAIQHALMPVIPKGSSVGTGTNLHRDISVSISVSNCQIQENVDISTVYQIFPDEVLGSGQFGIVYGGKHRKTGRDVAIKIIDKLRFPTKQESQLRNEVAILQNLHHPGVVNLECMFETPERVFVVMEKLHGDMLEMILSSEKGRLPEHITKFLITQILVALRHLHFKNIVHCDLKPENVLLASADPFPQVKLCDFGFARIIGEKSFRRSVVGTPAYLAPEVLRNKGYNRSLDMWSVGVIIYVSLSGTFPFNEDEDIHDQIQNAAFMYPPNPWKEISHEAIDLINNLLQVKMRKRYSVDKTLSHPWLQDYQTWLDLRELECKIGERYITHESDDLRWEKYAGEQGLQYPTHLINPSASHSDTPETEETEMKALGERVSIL
Method: Cells were lysed in buffer containing 20 mM HEPES 7.2, 150 mM NaCl, and 1% Triton X-100, supplemented with fresh protease and phosphatase inhibitors (Invitrogen, #78440), cleared by centrifugation at 12,000 × g for 10 min, and analyzed by BCA protein assay (Thermo Fisher Scientific, #23227). Equal protein amounts were loaded, separated by SDS-PAGE, electrotransferred to nitrocellulose membranes using the iBLOT2 system (Invitrogen), and blocked in 5% nonfat milk solution for 60 min. Membranes were probed with primary antibodies at 1:1000 dilution in 5% milk at 4 °C overnight. Signal was detected using appropriate horseradish peroxidase (HRP)-conjugated secondary antibodies at 1:10,000 in 5% milk at room temperature for 1–2 h. Bands were visualized by the Azure 600 western blot imaging system (Azure Biosystems). For in vitro ubiquitination assays performed with Me-Ub, bands were visualized by the Odyssey CLx Imager (LI‑COR) after incubating the blots with the IRDye 800CW (LI-COR) secondary antibodies at 1:10,000 in Intercept Blocking Buffer (LI-COR) at room temperature for 1–2 h. […]
The kinome selectivity of G6374 was assessed at 1 μM for 1 h versus a panel of 220 human kinases (SelectScreen Kinase Profiling Services, Thermo Fisher Scientific). […]

T1 sequence (O75460 19-977): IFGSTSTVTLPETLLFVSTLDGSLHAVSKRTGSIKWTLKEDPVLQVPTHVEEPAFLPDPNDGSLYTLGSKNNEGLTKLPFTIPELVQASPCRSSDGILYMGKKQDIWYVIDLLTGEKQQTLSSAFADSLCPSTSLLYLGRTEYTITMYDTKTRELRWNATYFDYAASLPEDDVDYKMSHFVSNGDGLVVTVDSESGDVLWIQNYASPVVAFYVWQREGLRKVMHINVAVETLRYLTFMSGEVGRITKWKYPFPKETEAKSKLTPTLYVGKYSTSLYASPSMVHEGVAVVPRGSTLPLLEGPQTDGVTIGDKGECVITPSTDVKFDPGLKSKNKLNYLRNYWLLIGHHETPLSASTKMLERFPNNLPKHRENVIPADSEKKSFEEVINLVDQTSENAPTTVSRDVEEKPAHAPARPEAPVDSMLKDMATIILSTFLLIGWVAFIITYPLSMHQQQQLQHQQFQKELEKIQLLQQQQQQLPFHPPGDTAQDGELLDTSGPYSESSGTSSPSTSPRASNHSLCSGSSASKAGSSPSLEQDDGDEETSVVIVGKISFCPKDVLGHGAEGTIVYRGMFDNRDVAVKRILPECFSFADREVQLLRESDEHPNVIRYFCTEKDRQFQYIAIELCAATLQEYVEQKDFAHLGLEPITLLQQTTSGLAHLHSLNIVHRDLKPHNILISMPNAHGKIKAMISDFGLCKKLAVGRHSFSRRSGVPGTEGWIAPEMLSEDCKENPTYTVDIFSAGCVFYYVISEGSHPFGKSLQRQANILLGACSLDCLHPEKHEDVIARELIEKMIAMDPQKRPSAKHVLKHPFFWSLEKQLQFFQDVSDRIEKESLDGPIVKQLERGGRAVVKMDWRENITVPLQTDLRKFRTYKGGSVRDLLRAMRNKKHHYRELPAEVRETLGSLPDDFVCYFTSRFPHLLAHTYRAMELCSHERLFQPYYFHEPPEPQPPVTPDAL
T1 sequence (P40337 whole entry): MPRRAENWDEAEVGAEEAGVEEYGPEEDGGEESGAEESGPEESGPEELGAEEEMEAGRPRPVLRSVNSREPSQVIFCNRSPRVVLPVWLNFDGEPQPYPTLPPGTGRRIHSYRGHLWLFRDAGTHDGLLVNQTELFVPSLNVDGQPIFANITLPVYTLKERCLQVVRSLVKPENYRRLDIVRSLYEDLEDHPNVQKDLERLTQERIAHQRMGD
T1 sequence (Q15369 whole entry partner): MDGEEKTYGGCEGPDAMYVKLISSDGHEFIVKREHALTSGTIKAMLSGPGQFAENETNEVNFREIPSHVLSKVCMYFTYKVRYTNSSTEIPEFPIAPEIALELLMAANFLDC
T1 sequence (Q15370 whole entry partner): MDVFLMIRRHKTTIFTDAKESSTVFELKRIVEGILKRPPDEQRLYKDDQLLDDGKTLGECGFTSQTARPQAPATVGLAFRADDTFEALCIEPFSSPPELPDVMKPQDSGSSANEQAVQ
T1 sequence (Q13617 whole entry partner): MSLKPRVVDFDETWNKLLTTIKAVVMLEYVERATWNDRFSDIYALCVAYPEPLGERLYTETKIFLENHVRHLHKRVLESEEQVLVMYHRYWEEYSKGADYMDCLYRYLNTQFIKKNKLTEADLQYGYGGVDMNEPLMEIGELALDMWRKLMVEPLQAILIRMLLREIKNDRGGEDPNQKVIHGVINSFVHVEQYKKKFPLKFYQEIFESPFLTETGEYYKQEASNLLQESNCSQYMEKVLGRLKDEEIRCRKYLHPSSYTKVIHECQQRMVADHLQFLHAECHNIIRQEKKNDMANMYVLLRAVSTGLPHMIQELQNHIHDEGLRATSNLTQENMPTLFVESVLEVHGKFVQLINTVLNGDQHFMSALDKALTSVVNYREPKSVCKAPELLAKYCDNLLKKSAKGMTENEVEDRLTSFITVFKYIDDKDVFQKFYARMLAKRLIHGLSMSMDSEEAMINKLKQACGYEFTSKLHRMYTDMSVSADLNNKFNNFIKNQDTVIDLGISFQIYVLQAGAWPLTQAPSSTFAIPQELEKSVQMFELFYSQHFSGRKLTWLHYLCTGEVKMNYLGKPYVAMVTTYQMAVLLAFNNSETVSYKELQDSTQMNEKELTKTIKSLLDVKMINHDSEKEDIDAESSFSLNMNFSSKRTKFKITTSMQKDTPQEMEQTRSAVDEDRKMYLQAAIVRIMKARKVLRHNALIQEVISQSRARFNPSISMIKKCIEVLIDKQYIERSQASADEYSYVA
T1 sequence (P62877 whole entry partner): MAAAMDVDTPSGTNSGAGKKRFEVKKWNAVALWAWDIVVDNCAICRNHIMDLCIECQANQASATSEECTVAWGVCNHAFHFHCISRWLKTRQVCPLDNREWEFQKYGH

Compound `Cc1ncsc1-c1ccc(CNC(=O)[C@@H]2C[C@@H](O)CN2C(=O)[C@@H](NC(=O)CCCCN2CCN([C@H]3CC[C@H](Nc4ncc5ccc(=O)n(C(C)C)c5n4)CC3)CC2)C(C)(C)C)cc1` [G6374] has a Dmax (IRE1; HEK-293T, 2 h, n = 3, mean ± SEM) of 78%, a DC50 (IRE1; estimated) of 0.13 µM and a Kd (human IRE1.KR) of 0.00056 µM. For the same compound, the kd (human IRE1.KR) was 0.0025 s⁻¹, the kon (human IRE1.KR; read-out: ka) was 4.95e+06 M⁻¹ s⁻¹ and the “degradation of PKD1” value (PKD1) was “no”.
